Data as given in patent US12252491B2, “IL-17A inhibitors” (Eli Lilly and Company, priority 2019, dated 2025).

Experiments:
[1] = molecular target: human IL-17A (Homo sapiens (Human), UniProt Q16552)
Experimental: The ability of compounds to neutralize the activity of IL-17A may be assessed with a cell-based human IL-17A neutralization assay conducted essentially as follows. […] After 48 hours, CXCL1/GROα in the culture media is measured using a commercial ELISA kit (#DY275; R&D Systems). Medium alone treatments are included in every experiment to assess the basal levels of CXCL1/GROα. Percent inhibition is calculated using the following equation:

[2] = Mouse oral bioavailability; format: in vivo; conditions: whole blood (dried blood spot), male mice, IV bolus 1 mg/kg vs oral 3 mg/kg, 8-hour AUC, read-out: % F (mouse)
Experimental: Oral bioavailability (% F) for compounds of the invention may be determined in mice by determination of an 8-hour blood plasma AUC (nM*hr) following intravenous and oral administration performed essentially as follows. Male mice (n=3) are administered compound via intravenous (IV) bolus (1 mg/kg) or orally (3 mg/kg). For intravenous administration, a vehicle of 20% w/v capsitol in NaPO4 buffer (25 mM) adjusted to pH 2 in a volume of 5 mL/kg is used. For oral administration, a vehicle of HEC/P80/AF/PW (probe sonicated to afford a homogeneous suspension) in a volume of 10 mL/kg is used. Blood is sampled by saphenous bleeding using K2 EDTA as anticoagulant. Approximately 20 μL of blood (or enough for 1 spot) is collected via a capillary tube and transferred to a card as a dry blood spot. Cards are allowed to dry for at least 2 hours before shipping for analysis. Blood concentration of compounds for each mouse is measured by liquid chromatography/tandem mass spectrometry at time points of 0.08 (IV only), 0.25, 0.5, 0.75, 2, 4, and 8 hours. Oral bioavailability (% F) is determined via the following equation: [% F=(AUC/Dose)PO/(AUC/Dose)IV].

[3] = molecular target: binding of IL-17A to IL-17RA (Homo sapiens (Human), UniProt Q16552); test: IL-17A:IL-17RA AlphaLISA
Sequence of binding of IL-17A to IL-17RA (Q16552 other isoform, or with tags, fused parts or gaps): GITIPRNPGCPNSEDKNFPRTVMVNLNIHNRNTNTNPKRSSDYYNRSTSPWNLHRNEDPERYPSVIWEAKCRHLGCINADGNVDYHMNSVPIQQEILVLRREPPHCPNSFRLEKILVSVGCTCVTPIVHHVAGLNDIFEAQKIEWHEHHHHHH
Experimental: The ability of compounds to inhibit the binding of IL-17A to IL-17RA may be assessed with an AlphaLISA assay.
To assay the compounds of the present invention, 0.1 μL of a test compound stock is serially diluted in 100% DMSO using an Echo Acoustic Liquid Handler (LabCyte Sunnydale, Calif.) in 384 well proxiplates (Perkin Elmer). A 5 μL addition of IL-17RA-FLAG is added to the plate, followed by the addition of 5 μL Avi-tagged IL-17A-His to provide a final concentration of 2 nM of IL-17RA and IL-17A, respectively. The assay is carried out in 20 mM HEPES, 150 mM NaCl, 0.05% Tween-20, 0.1% Human Serum Albumin, pH 7 and 1% DMSO. The assay mixture is allowed to incubate at room temperature for 2 hours. After the 2 hour incubation, 10 μL of streptavidin donor beads (20 μg/ml final) and anti-FLAG acceptor beads (20 μg/ml final) are added to the plate. The plate is allowed to incubate for one hour at room temp, then is read on the Envision (Perkin Elmer). The relative IC50 values are determined using a four parameter fit as shown in equation 1. In this equation, bottom and top are defined as the plateaus of the curve, and H is the Hill Slope.

Sequence of human IL-17A (Q16552 20-155): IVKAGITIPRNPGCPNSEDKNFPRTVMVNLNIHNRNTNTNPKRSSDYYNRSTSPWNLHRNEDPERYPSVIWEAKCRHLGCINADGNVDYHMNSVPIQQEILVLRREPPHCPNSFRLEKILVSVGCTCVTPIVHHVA

IC50 [1] [nM]	bioavailability [2] [%]	IC50 [3] [nM]	Structure (SMILES)
46.5	12	10.6	O=C(N[C@H](c1cn2ncc(CN3C[C@@H](C(F)(F)F)NC3=O)cc2n1)C1CCC(F)(F)CC1)c1conc1CCF [Example 9, N—[(S)-(4,4-Difluorocyclohexyl)-[7-[[(4S)-2-oxo-4-(trifluoromethyl)imidazolidin-1-yl]methyl]imidazo[1,2-b]pyridazin-2-yl]methyl]-3-(2-fluoroethyl)isoxazole-4-carboxamide]
148	55	< 9.45	O=C(N[C@H](c1cn2ncc(CN3C[C@@H](C(F)(F)F)NC3=O)cc2n1)C1CCC(F)(F)CC1)c1conc1C(F)(F)F [Example 11, N—[(S)-(4,4-Difluorocyclohexyl)-[7-[[(4S)-2-oxo-4-(trifluoromethyl)imidazolidin-1-yl]methyl]imidazo[1,2-b]pyridazin-2-yl]methyl]-3-(trifluoromethyl)isoxazole-4-carboxamide]
9.3 ± 6	107	< 9.45	COC[C@H](c1cnn2cc([C@@H](NC(=O)c3nonc3C)C3CCC(F)(F)CC3)nc2c1)N1C[C@@H](C(F)(F)F)NC1=O [Example 24, N—[(S)-(4,4-Difluorocyclohexyl)-[7-[(1S)-2-methoxy-1-[(4S)-2-oxo-4-(trifluoromethyl)imidazolidin-1-yl]ethyl]imidazo[1,2-b]pyridazin-2-yl]methyl]-4-methyl-1,2,5-oxadiazole-3-carboxamide]
2.2 ± 1.6	37	< 9.45	COC[C@H](c1cnn2cc([C@@H](NC(=O)c3nonc3C3CC3)C3CCC(F)(F)CC3)nc2c1)N1C[C@@H](C(F)(F)F)NC1=O [Example 25, 4-Cyclopropyl-N—[(S)-(4,4-difluorocyclohexyl)-[7-[(1S)-2-methoxy-1-[(4S)-2-oxo-4-(trifluoromethyl)imidazolidin-1-yl]ethyl]imidazo[1,2-b]pyridazin-2-yl]methyl]-1,2,5-oxadiazole-3-carboxamide]
